Like-named read-outs stand apart in the source and are kept apart here.
System: fibrosarcoma cell line HT1080
Assay: Ferroptosis screening model (MTT method), Erastin-induced ferroptosis
Assay type: cell-based, human
Conditions: HT1080, ferroptosis inducer Erastin, 72 h, average of three tests, read-out: EC50
Method: The screening model for ferroptosis mainly used MTT method. First, the fibrosarcoma cell line HT1080 was cultured in a dish, and the cells in the logarithmic growth phase were inoculated into a 96-well plate in a certain number (3000-10000 cells/well), 100 μL per well, and then the plate was put in an 5% CO2 incubator at 37° C., to allow the cells to adhere. After 24 h, 100 μL compound solution at a certain concentration prepared in the designated medium and ferroptosis inducer Erastin (with a final concentration of […]) were added, setting 3 replicate wells for each compound to ensure the accuracy of the results, and a negative control group, a positive control group (Fer-15 μM), a blank control group and a solvent control group were included. After addition of drugs, the plate was placed in an incubator and cultivated for 72 h. On the day of MTT experiment, MTT test solution (5 mg/mL MTT solution dissolved in physiological saline, and stored in the dark at 4° C.) was pre-prepared and 20 μL MTT solution was added to each well, then the plate was put in an incubator and continued to incubate for 2-4 h. After that, 50 μL of 20% SDS solution (dissolved in MiliiQ water, added with 1% concentrated hydrochloric acid) was added to each well and kept in an incubator overnight. On the next day, the absorbance at 570 nm was measured with a microplate reader, to calculate the inhibition rate of drugs on ferroptosis. Generally, the absorbance value of the control group should be in the range of 0.8-1.2 as a normal value.
GraphPadPrism5 software was used to fit the change curve of inhibition rate and calculate the EC50.

Row | Structure (SMILES) | EC50 (Homo sapiens, HT-1080, 72 h) | EC50
1 | CC(c1cncc(C#N)c1)c1ccc2c(c1)Nc1ccccc1S2 (stereo not drawn) [Compound A73, 5-(1-(10H-phenothiazin-2-yl)ethyl)nicotinonitrile] | 5 nM | 
2 | CC(c1ccc2c(c1)Nc1ccccc1S2)C1CCCCC1 (stereo not drawn) [Compound A76, 2-(1-cyclohexylethyl)-10H-phenothiazine] | 5 nM | 
3 | C=C(c1ccc(C(=O)OC)cc1)c1ccc2c(c1)Nc1ccccc1S2 [Compound B2, methyl 4-(1-(10H-phenothiazin-2-yl)ethenyl)benzoic acid] | 32 nM | 
4 | C=C(c1ccc(C(F)(F)F)cc1)c1ccc2c(c1)Nc1ccccc1S2 [Compound B3, 2-(1-(4-(trifluoromethyl)phenyl)ethenyl)-10H-phenothiazine] | 11 nM | 
5 | C=C(c1ccc(OC(F)(F)F)cc1)c1ccc2c(c1)Nc1ccccc1S2 [Compound B5, 2-(1-(4-trifluoromethoxylphenyl)ethenyl)-10H-phenothiazine] | 80 nM | 
6 | C=C(c1ccc(C)cc1)c1ccc2c(c1)Nc1ccccc1S2 [Compound B6, 2-(1-(p-methylphenyl)ethenyl)-10H-phenothiazine] | 45 nM | 
7 | C=C(c1ccc(NC(C)=O)cc1)c1ccc2c(c1)Nc1ccccc1S2 [Compound B9, N-(4-(1-(10H-phenothiazin-2-yl)ethenyl)phenyl)acetylamine] | 3 nM | 
8 | C=C(c1ccc(C=O)cc1)c1ccc2c(c1)Nc1ccccc1S2 [Compound B13, 4-(1-(10H-phenothiazin-2-yl)ethenyl)benzaldehyde] | 30 nM | 
9 | C=C(c1cccc(N)c1)c1ccc2c(c1)Nc1ccccc1S2 [Compound B17, 3-(1-(10H-phenothiazin-2-yl)ethenyl)phenylamine] | 17 nM | 
10 | C=C(c1cccc([N+](=O)[O-])c1)c1ccc2c(c1)Nc1ccccc1S2 [Compound B19, 2-(1-(3-nitrophenyl)ethenyl)-10H-phenothiazine] | 13 nM | 
11 | C=C(c1cccc(S(N)(=O)=O)c1)c1ccc2c(c1)Nc1ccccc1S2 [Compound B20, 3-(1-(10H-phenothiazin-2-yl)ethenyl)benzenesulfonamide] | 10 nM | 
12 | C=C(c1cccc(OC(F)(F)F)c1)c1ccc2c(c1)Nc1ccccc1S2 [Compound B22, 2-(1-(3-trifluoromethoxylphenyl)ethenyl)-10H-phenothiazine] | 30 nM | 
13 | C=C(c1cccc(C(C)(C)C)c1)c1ccc2c(c1)Nc1ccccc1S2 [Compound B25, 2-(1-(3-t-butylphenyl)ethenyl)-10H-phenothiazine] | 16 nM | 
14 | C=C(c1cccc(C(C)C)c1)c1ccc2c(c1)Nc1ccccc1S2 [Compound B27, 2-(1-(3-isopropylphenyl)ethenyl)-10H-phenothiazine] | 38 nM | 
15 | C=C(c1cccc(C(=O)OCC)c1)c1ccc2c(c1)Nc1ccccc1S2 [Compound B28, ethyl3-(1-(10H-phenothiazin-2-yl)ethenyl)benzoic acid] | 27 nM | 
16 | C=C(c1cccc(-c2ccccc2)c1)c1ccc2c(c1)Nc1ccccc1S2 [Compound B29, 2-(1-([1,1′-diphenyl]-3-yl)ethenyl)-10H-phenothiazine] | 41 nM | 
17 | C=C(c1cccc(C(=O)OC)c1)c1ccc2c(c1)Nc1ccccc1S2 [Compound B31, methyl 3-(1-(10H-phenothiazin-2-yl)ethenyl)benzoic acid] | 51 nM | 
18 | C=C(c1cccc(C#N)c1)c1ccc2c(c1)Nc1ccccc1S2 [Compound B32, 3-(1-(10H-phenothiazin-2-yl)ethenyl)benzonitrile] | 89 nM | 

Now from value to molecule:

Row | EC50 (Homo sapiens, HT-1080, 72 h) | EC50 | Structure (SMILES)
19 | 18 nM |  | CCOc1ccc2cc(C(C)c3ccc4c(c3)Nc3ccccc3S4)ccc2c1 (stereo not drawn) [Compound A70, 2-(1-(6-ethoxylnaphthalen-2-yl)ethyl)-10H-phenothiazine]
20 |  | 17 nM | CC(c1ccc2c(c1)Nc1ccccc1S2)c1c2ccccc2cc2ccccc12 (stereo not drawn) [Compound A71, 2-(1-(anthrathen-9-yl)ethyl)-10H-phenothiazine]
21 | 14 nM |  | CC(c1ccc2c(c1)CCO2)c1ccc2c(c1)Nc1ccccc1S2 (stereo not drawn) [Compound A72, 2-(1-(2,3-dihydrobenzofuran-5-yl)ethyl)-10H-phenothiazine]
22 | 3 nM |  | Cc1cc(C(C)c2ccc3c(c2)Nc2ccccc2S3)ccn1 (stereo not drawn) [Compound A74, 2-(1-(2-methylpyridin-4-yl)ethyl)-10H-phenothiazine]
23 | 23 nM |  | CCOc1ccc(C(C)c2ccc3c(c2)Nc2ccccc2S3)cn1 (stereo not drawn) [Compound A75, 2-(1-(6-ethoxylpyridin-3-yl)ethyl)-10H-phenothiazine]
24 |  | 10 nM | CC(c1ccccc1)c1ccc2c(c1)Nc1ccccc1S2 (stereo not drawn) [Compound B1, 2-(1-phenylethyl)-10H-phenothiazine]
25 | 23 nM |  | C=C(c1ccc(CC)cc1)c1ccc2c(c1)Nc1ccccc1S2 [Compound B4, 2-(1-(4-ethylphenyl)ethenyl)-10H-phenothiazine]
26 | 29 nM |  | C=C(c1ccc(CCCC)cc1)c1ccc2c(c1)Nc1ccccc1S2 [Compound B7, 2-(1-(4-butylphenyl)ethenyl)-10H-phenothiazine]
27 | 40 nM |  | C=C(c1ccc(C(C)C)cc1)c1ccc2c(c1)Nc1ccccc1S2 [Compound B8, 2-(1-(4-isopropylphenyl)ethenyl)-10H-phenothiazine]
28 | 10 nM |  | C=C(c1ccc(NC(N)=O)cc1)c1ccc2c(c1)Nc1ccccc1S2 [Compound B10, N-(4-(1-(10H-phenothiazin-2-yl)ethenyl)phenyl)urea]
29 | 39 nM |  | C=C(c1ccc(C2CCCCC2)cc1)c1ccc2c(c1)Nc1ccccc1S2 [Compound B11, 2-(1-(4-cyclohexylphenyl)ethenyl)-10H-phenothiazine]
30 | 40 nM |  | C=C(c1ccc(CC(C)C)cc1)c1ccc2c(c1)Nc1ccccc1S2 [Compound B12, 2-(1-(4-isobutylphenyl)ethenyl)-10H-phenothiazine]
31 |  | 39 nM | C=C(c1ccc(N2CCOCC2)cc1)c1ccc2c(c1)Nc1ccccc1S2 [Compound B14, 4-(4-(1-(10H-phenothiazin-2-yl)ethenyl)phenyl)morpholine]
32 |  | 680 nM | C=C(c1ccc(N2CCOCC2)cc1)c1ccc2c(c1)Nc1ccccc1S2 [Compound B15, 4-(4-(1-(10H-phenothiazin-2-yl)ethenyl)phenyl)morpholine]
33 | 29 nM |  | C=C(c1ccc2c(c1)Nc1ccccc1S2)c1ccccc1N [Compound B16, 2-(1-(10H-phenothiazin-2-yl)ethenyl)phenylamine]
34 | 40 nM |  | C=C(c1cccc(O)c1)c1ccc2c(c1)Nc1ccccc1S2 [Compound B18, 3-(1-(10H-phenothiazin-2-yl)ethenyl)phenol]
35 | 11 nM |  | C=C(c1cccc(OC)c1)c1ccc2c(c1)Nc1ccccc1S2 [Compound B21, 2-(1-(3-methoxylphenyl)ethenyl)-10H-phenothiazine]
36 | 48 nM |  | C=C(c1cccc(OC(C)C)c1)c1ccc2c(c1)Nc1ccccc1S2 [Compound B23, 2-(1-(3-isopropoxylphenyl)ethenyl)-10H-phenothiazine]
37 | 31 nM |  | C=C(c1cccc(C)c1)c1ccc2c(c1)Nc1ccccc1S2 [Compound B24, 2-(1-(m-methylphenyl)ethenyl)-10H-phenothiazine]
38 | 16 nM |  | C=C(c1cccc(C(N)=O)c1)c1ccc2c(c1)Nc1ccccc1S2 [Compound B26, 3-(1-(10H-phenothiazin-2-yl)ethenyl)benzamide]
39 | 45 nM |  | C=C(c1cccc(C(F)(F)F)c1)c1ccc2c(c1)Nc1ccccc1S2 [Compound B30, 2-(1-(3-(trifluoromethyl)phenyl)ethenyl)-10H-phenothiazine]
